This passage reports MIC90 and MIC results from ChEMBL document CHEMBL5226287, “Small organic molecules targeting the energy metabolism of Mycobacterium tuberculosis” (Eur J Med Chem, 2021).

≈ marks a conversion by molar mass, not a printed value. Starred links: 1 amine or outer side, 2 acyl side, 3 side chain; linkers in the order of their positions; H or OH if unused. Non-standard residues stand in square brackets, D forms with d. Residues, ends and D or L forms follow the SMILES beside them. ξ: configuration not given here. *: point of attachment. X1 = CCC(=O)C[C@@H](O)C[C@@H](C)C[C@H](N[*:1])C(=O)[*:2]; Alaψ(CH2NMeCH2CH2OH) = C[C@@H](CN(C)CCO)N*; Decanoyl(2R-Me) = CCCCCCCC[C@@H](C)C(=O)*; Ile(3ξ) = CCC(C)[C@H](N)C(=O)O; ξβ3hP = O=C(O)CC1CCCN1; Aib = CC(C)(N)C(=O)O Some results are limits rather than exact numbers.

Common to all, as to format: functional
Assay [1] deals with Mycobacterium tuberculosis. Kind of assay: Antimycobacterial activity against Mycobacterium tuberculosis QcrBT mutant assessed as reduction in bacterial growth.
Assay [2] has as its system Mycobacterium tuberculosis. Kind of assay: Antibacterial activity against Mycobacterium tuberculosis H37Rv resistant rifampicin by CLSI broth microdilution method.
Assay [3] deals with Mycobacterium tuberculosis. Kind of assay: Antibacterial activity against Mycobacterium tuberculosis H37Rv resistant isoniazid by CLSI broth microdilution method. The conditions noted are these: route inh.
Assay [4] has as its system Mycobacterium tuberculosis. Kind of assay: Antibacterial activity against rifampicin-resistant Mycobacterium tuberculosis H37Rv assessed as bacterial growth inhibition by microdilution method.
Assay [5] has as its system Mycobacterium tuberculosis. Kind of assay: Antibacterial activity against isoniazid-resistant Mycobacterium tuberculosis H37Rv assessed as bacterial growth inhibition by microdilution method.
Assay [6] relates to Mycobacterium tuberculosis. Kind of assay: Antibacterial activity against drug resistant Mycobacterium tuberculosis H37Rv in the presence of ATP synthase.
The test system of assay [7] is Mycobacterium tuberculosis. Briefly: Antibacterial activity against Mycobacterium tuberculosis H37Rv overexpressed in ATP synthase.

As for `Cc1ccn2c(C(=O)NCc3ccccc3)c(C)nc2c1`, the MIC90 in assay [1] came to 6.5 µM (≈ 1.82 µg/mL). With `CCCc1cc(OCC(=O)Nc2ccccc2OC)c2cc(OC)ccc2n1`, the minimal inhibitory concentration (MIC) in assay [2] and in assay [3] was 0.01 µg/mL (≈ 0.0263 µM) each time. Take `Cc1cn2c(C(=O)NCc3ccc(C(F)(F)F)cc3)c(C)nc2s1`: the minimal inhibitory concentration (MIC) in assay [4] and in assay [5] was less than 0.04 µM each time. As for `CN(C)Cc1ccc(-c2cc3cc(Br)ccc3nc2OCc2ccncc2)cc1`, the minimal inhibitory concentration (MIC) in assay [6] was 0.48 µg/mL. Take `Cc1cn2c(C(=O)NCc3ccc(N4CCN(c5ccc(C(F)(F)F)cn5)CC4)c(F)c3)c(C)nc2s1`: the MIC in assay [4] was less than 0.201 µM; in assay [5], less than 0.506 µM. Consider `CN(C)CCN1CCN(c2ccc(-c3cc4cc(Br)ccc4nc3OCc3ccc4ccccc4c3)cc2)CC1`, for which the minimal inhibitory concentration (MIC) in assay [6] turned out to be 0.94 µg/mL. Take `Cc1ccn2c(C(=O)NCc3cccc(OC(C)C)c3)c(C)nc2c1`: the MIC90 in assay [1] was more than 20 µM. Molecule `CCCCCCCC[C@@H](C)C(=O)N1CCCC1CC(=O)N[C@@H](C[C@H](C)C[C@H](O)CC(=O)CC)C(=O)NC(C)(C)C(=O)NC(C)(C)C(=O)N[C@H](C(=O)N[C@H](C(=O)NC(C)(C)C(=O)NC(C)(C)C(=O)N[C@@H](C)CN(C)CCO)C(C)C)C(C)CC` (stereo partly drawn) ({Decanoyl(2R-Me)}-[ξβ3hP][X1][Aib][Aib][Ile(3ξ)]V[Aib][Aib]-{Alaψ(CH2NMeCH2CH2OH)}) gave an MIC in assay [7] of 0.12 µg/mL (≈ 0.102 µM).
